In patent US20260347364A1, “PYRAZOLO[4,3-F]QUINAZOLINE DERIVATIVES AS MODULATORS OF G12D MUTANT KRAS USEFUL FOR THE TREATMENT OF CANCER” (JAZZ PHARMACEUTICALS IRELAND LTD., priority 2023, published 2026):

Columns and labels:
KRAS G12D = molecular target: T1, KRAS G12D (Homo sapiens, UniProt P01116, G12D); assay: HTRF nucleotide exchange assay, KRAS G12D; format: biochemical; conditions: class symbols; for IC50: HTRF nucleotide exchange assay (NEA)
T1 construct: aa1-188 KRAS WT, HRAS WT, NRAS WT, or KRAS containing the G12D

KRAS WT = molecular target: T2, KRAS WT (Homo sapiens, UniProt P01116); assay: HTRF nucleotide exchange assay, KRAS WT; format: biochemical; conditions: class symbols; for IC50: HTRF nucleotide exchange assay (NEA)
T2 construct: aa1-188 KRAS WT

SMILES | IC50 (KRAS G12D) [nM] | IC50 (KRAS WT) [nM] | KRAS^G12D NEA (KRAS G12D) | KRAS^WT NEA (KRAS WT)
CCc1c(F)ccc2cc(O)cc(-c3cc4nc(O[C@@H](C)[C@@H]5CCCN5C)nc(N5CCCn6nc(C(=O)N(C)C)cc6C5)c4c4cn(C)nc34)c12 (racemic) [Example 54, 5-[4-(8-ethyl-7-fluoro-3-hydroxy-1-naphthyl)-2-methyl-7-[rac-(1S)-1-[rac-(2S)-1-methylpyrrolidin-2-yl]ethoxy]pyrazolo[4,3-f]quinazolin-9-yl]-N,N-dimethyl-4,6,7,8-tetrahydropyrazolo[1,5-a][1,4]diazepine-2-carboxamide] | 100 to 10000 | 100 to 10000 | – | –
CCc1c(F)ccc2cc(O)cc(-c3c(F)c4nc(OCC5(CN6CCC(OC)CC6)CC5)nc(N5CCOCC(C)(O)C5)c4c4cn(C)nc34)c12 (stereo not shown) [Example 187, 4-[4-(8-ethyl-7-fluoro-3-hydroxy-1-naphthyl)-5-fluoro-7-[[1-[(4-methoxy-1-piperidyl)methyl]cyclopropyl]methoxy]-2-methyl-pyrazolo[4,3-f]quinazolin-9-yl]-6-methyl-1,4-oxazepan-6-ol] | ≤ 10 | ≤ 10 | – | –
CCc1c(F)ccc2cc(O)cc(-c3c(C)c4nc(OC[C@@H]5CCN5)nc(N5CCOCC(C)(O)C5)c4c4cn(C)nc34)c12 (stereo partly drawn) [Example 144, 4-[4-(8-ethyl-7-fluoro-3-hydroxy-1-naphthyl)-2,5-dimethyl-7-[[(2S)-azetidin-2-yl]methoxy]pyrazolo[4,3-f]quinazolin-9-yl]-6-methyl-1,4-oxazepan-6-ol] | ≤ 10 | 10 to 100 | – | –
C#Cc1c(F)ccc2cc(O)cc(-c3cc4nc(OC[C@@]56CCCN5C[C@H](F)C6)nc(N5CC6CNCC6C5)c4c4cn(C)nc34)c12 (stereo partly drawn) [Example 34, 4-[9-(2,3,3a,4,6,6a-hexahydro-1H-pyrrolo[3,4-c]pyrrol-5-yl)-2-methyl-7-[[(2R,8S)-2-fluoro-1,2,3,5,6,7-hexahydropyrrolizin-8-yl]methoxy]pyrazolo[4,3-f]quinazolin-4-yl]-5-ethynyl-6-fluoro-naphthalen-2-ol] | ≤ 10 | 100 to 10000 | – | –
CCc1c(F)ccc2cc(O)cc(-c3c(C)c4nc(OC[C@@]56CCCN5C[C@H](F)C6)nc(N5CC6CCC(C5)N6)c4c4cn(C)nc34)c12 [Example 96, tert-butyl 3-[4-bromo-7-[[(2R,8S)-2-fluoro-1,2,3,5,6,7-hexahydropyrrolizin-8-yl]methoxy]-2,5-dimethyl-pyrazolo[4,3-f]quinazolin-9-yl]-3,8-diazabicyclo[3.2.1]octane-8-carboxylate] | ≤ 10 | ≤ 10 | – | –
CCc1c(F)ccc2cc(O)cc(-c3cc4nc(OCC5CCCCN5C)nc(N5CCCOCC5)c4c4cn(C)nc34)c12 (stereo not shown) [Example 19, 5-ethyl-6-fluoro-4-[2-methyl-7-[(1-methyl-2-piperidyl)methoxy]-(1,4-oxazepan-4-yl)pyrazolo[4,3-f]quinazolin-4-yl]naphthalen-2-ol] | 100 to 10000 | 100 to 10000 | – | –
CCc1c(F)ccc2cc(O)cc(-c3c(C)c4nc(OC[C@@]56CCCN5C[C@H](F)C6)nc(N5CCCn6nc(C(=O)N(C)C)nc6C5)c4c4cn(C)nc34)c12 (racemic) [Example 198, 8-[4-(8-ethyl-7-fluoro-3-hydroxy-1-naphthyl)-2,5-dimethyl-7-[[rac-(2R,8S)-2-fluoro-1,2,3,5,6,7-hexahydropyrrolizin-8-yl]methoxy]pyrazolo[4,3-f]quinazolin-9-yl]-N,N-dimethyl-5,6,7,9-tetrahydro-[1,2,4]triazolo[1,5-a][1,4]diazepine-2-carboxamide] | ≤ 10 | ≤ 10 | – | –
C#Cc1c(F)ccc2cc(O)cc(-c3cc4nc(OC[C@@]56CCCN5C[C@H](F)C6)nc(N5CCOCC(C)(O)C5)c4c4cn(C)nc34)c12 (stereo partly drawn) [Example 11, 4-[4-(8-ethynyl-7-fluoro-3-hydroxy-1-naphthyl)-2-methyl-7-[[(2R,8S)-2-fluoro-1,2,3,5,6,7-hexahydropyrrolizin-8-yl]methoxy]pyrazolo[4,3-f]quinazolin-9-yl]-6-methyl-1,4-oxazepan-6-ol] | ≤ 10 | ≤ 10 | – | –
CN(C)C(=O)c1cc2n(n1)CCCN(c1nc(OC[C@@]34CCCN3C[C@H](F)C4)nc3cc(-c4cc(O)ccc4C(F)(F)F)c4nn(C)cc4c13)C2 (racemic) [Example 64, 5-[4-[5-hydroxy-2-(trifluoromethyl)phenyl]-2-methyl-7-[[rac-(2R,8S)-2-fluoro-1,2,3,5,6,7-hexahydropyrrolizin-8-yl]methoxy]pyrazolo[4,3-f]quinazolin-9-yl]-N,N-dimethyl-4,6,7,8-tetrahydropyrazolo[1,5-a][1,4]diazepine-2-carboxamide] | 10 to 100 | 100 to 10000 | – | –
CCc1c(F)ccc2cc(O)cc(-c3c(F)c4nc(OCC5(C)CC(O)CN5)nc(N5CCOCC(C)(O)C5)c4c4cn(C)nc34)c12 (stereo not shown) [Example 152, 4-[4-(8-ethyl-7-fluoro-3-hydroxy-1-naphthyl)-5-fluoro-7-[(4-hydroxy-2-methyl-pyrrolidin-2-yl)methoxy]-2-methyl-pyrazolo[4,3-f]quinazolin-9-yl]-6-methyl-1,4-oxazepan-6-ol] | ≤ 10 | ≤ 10 | – | –
CCc1c(F)ccc2cc(Cl)cc(-c3cc4nc(OC[C@@]56CCCN5C[C@H](F)C6)nc(N5CCCn6nc(C(=O)N(C)C)cc6C5)c4c4cn(C)nc34)c12 [Example 104, 5-[4-(3-chloro-8-ethyl-7-fluoro-1-naphthyl)-2-methyl-7-[[(2R,8S)-2-fluoro-1,2,3,5,6,7-hexahydropyrrolizin-8-yl]methoxy]pyrazolo[4,3-f]quinazolin-9-yl]-N,N-dimethyl-4,6,7,8-tetrahydropyrazolo[1,5-a][1,4]diazepine-2-carboxamide] | 10 to 100 | 100 to 10000 | – | –
CCc1c(F)ccc2cc(O)cc(-c3cc4nc(OCC5(CN(C)C)CC5)nc(N5CCCOCC5)c4c4cn(C)nc34)c12 [Example 30, 4-[7-[[1-[(dimethylamino)methyl]cyclopropyl]methoxy]-2-methyl-9-(1,4-oxazepan-4-yl)pyrazolo[4,3-f]quinazolin-4-yl]-5-ethyl-6-fluoro-naphthalen-2-ol] | 10 to 100 | 10 to 100 | – | –
CCc1c(F)ccc2cc(O)cc(-c3cc4nc(OC[C@@]56CCCN5C[C@H](F)C6)nc(N5CCOCC(O)(C(F)(F)F)C5)c4c4cn(C)nc34)c12 (stereo partly drawn) [Example 123, 4-[4-(8-ethyl-7-fluoro-3-hydroxy-1-naphthyl)-2-methyl-7-[[(2R,8S)-2-fluoro-1,2,3,5,6,7-hexahydropyrrolizin-8-yl]methoxy]pyrazolo[4,3-f]quinazolin-9-yl]-6-(trifluoromethyl)-1,4-oxazepan-6-ol] | 10 to 100 | 10 to 100 | – | –
C#Cc1c(F)ccc2cc(O)cc(-c3c(C)c4nc(OC[C@@]56CCCN5C[C@H](F)C6)nc(N5CCC[C@@](C)(O)C5)c4c4cn(C)nc34)c12 [Example 184, (3R)-1-[4-(8-ethynyl-7-fluoro-3-hydroxy-1-naphthyl)-2,5-dimethyl-7-[[(2R,8S)-2-fluoro-1,2,3,5,6,7-hexahydropyrrolizin-8-yl]methoxy]pyrazolo[4,3-f]quinazolin-9-yl]-3-methyl-piperidin-3-ol] | ≤ 10 | ≤ 10 | – | –
CCc1c(F)ccc2cc(O)cc(-c3cc4nc(OCC5CCCN(C)C5)nc(N5CCCOCC5)c4c4cn(C)nc34)c12 (stereo not shown) [Example 32, 5-ethyl-6-fluoro-4-[2-methyl-7-[(1-methyl-3-piperidyl)methoxy]-9-(1,4-oxazepan-4-yl)pyrazolo[4,3-f]quinazolin-4-yl]naphthalen-2-ol] | 100 to 10000 | 100 to 10000 | – | –
Cn1ncc2c3c(N4CCCOCC4)nc(OC[C@@]45CCCN4C[C@H](F)C5)nc3cc(-c3cc(O)cc4ccccc34)c21 [Example 48, 4-[3-methyl-9-(1,4-oxazepan-4-yl)-7-[[(2R,8S)-2-fluoro-1,2,3,5,6,7-hexahydropyrrolizin-8-yl]methoxy]pyrazolo[4,3-f]quinazolin-4-yl]naphthalen-2-ol] | – | – | D (<49% inhibition at 10 μM) | D (<49% inhibition at 10 μM)
Cn1cc2c(n1)c(-c1cccc3sc(N)c(C#N)c13)cc1nc(OC[C@@]34CCCN3C[C@H](F)C4)nc(N3CCCOCC3)c12 [Example 3, 2-amino-4-[2-methyl-9-(1,4-oxazepan-4-yl)-7-[[(2R,8S)-2-fluoro-1,2,3,5,6,7-hexahydropyrrolizin-8-yl]methoxy]pyrazolo[4,3-f]quinazolin-4-yl]benzothiophene-3-carbonitrile] | – | 100 to 10000 | D (<49% inhibition at 10 μM) | –
CCc1c(F)ccc2cc(O)cc(-c3c(F)c4nc(OCC5(CN6CC[C@@H](F)C6)CC5)nc(N5CCOCC(C)(O)C5)c4c4cn(C)nc34)c12 (stereo partly drawn) [Example 193, 4-[4-(8-ethyl-7-fluoro-3-hydroxy-1-naphthyl)-5-fluoro-2-methyl-7-[[1-[[(3R)-3-fluoropyrrolidin-1-yl]methyl]cyclopropyl]methoxy]pyrazolo[4,3-f]quinazolin-9-yl]-6-methyl-1,4-oxazepan-6-ol] | ≤ 10 | ≤ 10 | – | –
CCc1c(F)ccc2cc(O)cc(-c3c(F)c4nc(OCC5(C)C[C@@H](O)CN5C)nc(N5CCOCC(C)(O)C5)c4c4cn(C)nc34)c12 (mixture of isomers) [Example 153, 4-[4-(8-ethyl-7-fluoro-3-hydroxy-1-naphthyl)-5-fluoro-2-methyl-7-[[rac-(4R)-4-hydroxy-1,2-dimethyl-pyrrolidin-2-yl]methoxy]pyrazolo[4,3-f]quinazolin-9-yl]-6-methyl-1,4-oxazepan-6-ol] | ≤ 10 | ≤ 10 | – | –
CCc1c(F)ccc2cc(O)cc(-c3c(C)c4nc(OCC5(C)CC(OC)CN5)nc(N5CCOCC(C)(O)C5)c4c4cn(C)nc34)c12 (stereo not shown) [Example 137, 4-[4-(8-ethyl-7-fluoro-3-hydroxy-1-naphthyl)-7-[(4-methoxy-2-methyl-pyrrolidin-2-yl)methoxy]-2,5-dimethyl-pyrazolo[4,3-f]quinazolin-9-yl]-6-methyl-1,4-oxazepan-6-ol] | ≤ 10 | ≤ 10 | – | –
